Legend:
[1] = system: microglia; assay: Superoxide assay (SOD-inhibitable WST-1 reduction) after LPS; format: cell-based; details: 30 min after LPS
Method: Extracellular superoxide (O2^−) production from microglia was determined by measuring the superoxide dismutase (SOD) inhibitable reduction of 2-(4-lodophenyl)-3-(4-nitrophenyl)-5-(2,4,-disulfophenyl)-2H-tetrazolium, monosodium salt, WST-1. Briefly, 200 μL of primary enriched-microglia were seeded (1×10^5/well) in 96-well plates. The cells were then incubated for 24 h at 37° C. in a humidified atmosphere of 5% CO2 and 95% air. Immediately before treatment, cells were washed twice with Hanks balanced salt solution (HBSS). To each well, 100 μL of HBSS with or without SOD (600 U/mL), 50 μL of vehicle or LPS, and 50 μL of WST-1 (1 mM) in HBSS were added. The cultures were incubated for 30 min at 37° C. and 5% CO2 and 95% air. The absorbance at 450 nm was read with a Spectra Max Plus microtiter plate spectrophotometer (Molecular Devices, Sunnyvale, Calif., USA). […] The amount of SOD-inhibitable superoxide was calculated and expressed as percent of vehicle-treated control cultures.
(§1) Neuron-glia cultures were pretreated for 30 min with MMT (3 μM) or vehicle before LPS stimulation. […] Production of superoxide (30 min after LPS) and iROS (2 h after LPS) was decreased by MMT treatment (FIGS. 6A and 6B). […] The production of PGE2 in cultures pretreated with 3 and 10 μM MMT decreased by 23% and 27% respectively (FIG. 6E).

[2] = system: microglia; assay: Intracellular reactive oxygen species assay (DCFH oxidation) after LPS; format: cell-based; details: 2 h after LPS
Method: The production of intracellular reactive oxygen species (ROS) was measured by DCFH oxidation. The DCFH-DA reagent passively enters cell where it is de-acetylated by esterase to nonfluorescent DCFH. Inside the cell, DCFH reacts with ROS to form DCF, the fluorescent product. For this assay, 10 mM DCFH-DA was dissolved in methanol and was diluted 500-fold in HBSS to give a 20 μM concentration of DCFH-DA. Enriched-microglia cultures seeded (5×10^4) in 96-well plates were then exposed to DCFH-DA for 1 h, followed by treatment with HBSS containing several concentrations of LPS or substance P for 2 h. After incubation, the fluorescence was read at the 485 nm excitation and 530 nm emission on a fluorescence plate reader. […] To calculate the amount of intracellular ROS produced, the mean control treatment was subtracted from the mean treatment group.
as §1

[3] = system: DA neurons; assay: LPS-induced neurotoxicity in neuron/glia cultures from NADPH oxidase-deficient mice; format: cell-based; details: NADPH oxidase-deficient (gp 91 lacking) neuron/glia cultures, preliminary data
Description: Results from two sets of experiments support this conclusion. […] Thus, the failure for MMT to protect LPS-induced DA neurons toxicity in NADPH oxidase-deficient neuron/glia cultures implies a critical role of this enzyme in mediating the neuroprotective effect of MMT. The present invention determines the binding site of MMT in microglia.
Timed-pregnant (gestational day 14) adult female Fisher 344 rats were purchased from Charles River Laboratories (Raleigh, N.C., USA). Eight-wk-old (25-30 g) male and female B6.129S6-Cybb^tm1Din(PHOX^−/−) and C57BL/6J (PHOX^+/+) mice were purchased from Jackson Laboratories (Bar Harbor, Me., USA) and maintained in a strict pathogen free environment. The PHOX^−/− mice lack the functional catalytic subunit of the NADPH oxidase complex, gp91. NADPH oxidase is an inducible electron transport system in phagocytic cells that is responsible for the generation of the respiratory burst. PHOX^−/− mice are unable to generate extracellular superoxide in response to LPS or other immunological stimulus. Breeding of the mice was designed to achieve accurate timed-pregnancy±0.5 days. Because the PHOX^−/− mutation is maintained in the C57BL/6J background, the C57BL/6J (PHOX^+/+) mice were used as control animals. Housing, breeding and experimental use of the animals were performed in strict accordance with the National Institutes of Health guidelines. […]

[4] = system: HAPI; assay: MTT cell viability of HAPI cells with LPS; format: cell-based; details: MMT 10 uM, LPS 100 ng/ml, 48 hrs
Method: HAPI was seeded with 1*10^4/well in 96-well plate. Twenty-four hours later, it was treated with vehicle, MMT (10 uM), and LPS 100 ng/ml for 48 hrs. After adding MTT, cell viability was measured (FIG. 8A) and morphology (FIG. 8B) was examined by contrast microscope. Values are mean±SEM of three independent experiments. *p<0.05, compared with LPS.

[5] = system: DA neurons; assay: Neurotrophic effect in neuron-enriched, microglia-added and microglia-depleted cultures (DA uptake); format: cell-based, rat
Method: Astrocytes, not micrglia, contribute to the neurotrophic effect of MMT. Neuron-enriched cultures were treated with vehicle and 1-10 μM MMT (FIG. 10A); 10% (5×10^4/well) of microglia were added back to neuron-enriched cultures and treated with 10 μM MMT (FIG. 10B); Depleted microglia cultures were treated with 10 μM MMT (FIG. 10C). ┌^3H┘ DA uptake was assayed 7 days after treatment. Values are mean±SEM of three independent experiments. *p<0.05, compared with corresponding vehicle-treated control cultures.
In addition to neuroprotection against LPS-induced neurotoxicity, MMT is found to have high potency of neurotrophic effect on DA neurons in rat primary mesencephalic neuron-glia cultures.
Mesencephalic neuron-glia cultures were seeded (5×10^5/well) in 24 well plates precoated with poly D-lysine. Thirty-six hours postseeding, 5-10 μM cytosine β-D-arabinofuranoside was added to the culture. After 2 days, the cytosine β-D-arabinofuranoside was removed and replaced with fresh media. Neuron-enriched cultures are 98% pure, as indicated by ICC staining with OX-42 and GFAP antibodies. Neuron-enriched cultures were treated 7 days post-seeding. For microglia add-back cultures, the microglia were plated on top of the neuron-enriched culture at 6 days postseeding, resulting in the addition of either 10% (500 μL of 1×10^5) or 20% (500 μL of 2×10^5) microglia. Cells were treated 7 days after the initial seeding of the neuron-enriched cultures.

CC12CC3CC(C)(C1)CC(N)(C3)C2.Cl [MMT, 1-amino-3,5-dimethyladamantane hydrochloride]
production of superoxide [1]: decreased | production of iROS [2]: decreased | neuroprotective effect on LPS-induced neurotoxicity [3]: failed to produce any neuroprotective effect | effect on apoptosis of activated microglia induced by LPS (MTT cell viability) [4]: lack of effect | neurotrophic effect on DA neurons ([5]; 10% of microglia added back to neuron-enriched cultures): not microglia-added cultures | neurotrophic effect on DA neurons ([5]; microglia-depleted neuron/glia culture): neurotrophic in microglia-depleted neuron/glia culture | neurotrophic effect on DA neurons ([5]; neuron-enriched cultures): failed to show any protective effect

— patent publication US20150080475A1, “Memantine Protects Inflammation-Related Degeneration of Dopamine Neurons Through Inhibition of Over-Activated Microglia and Release of Neurotrophic Factors From Astroglia” (priority 2009, published 2015)
